The text below walks through data of US9371337B2, “β-lactamase inhibitors” (The Regents of the University of California, priority 2011, dated 2016).

Where two headings read alike, the source gives them in different places.

Test [1] relates to K. pneumoniae producing the plasmid-mediated class C β-lactamase DHA-1. Kind of test: MIC of third-generation cephalosporins alone and with compounds 4 or 9 (Table 3). Format: cell-based, Klebsiella pneumoniae. As to conditions: ratio 1:1. From the text:
(§1) Antimicrobial activity was investigated quantitatively to determine the minimum inhibitory concentrations (MICs) of the β-lactam/inhibitor combination necessary to inhibit the bacterial growth (Table 3). The MICs of β-lactams alone against the strains corresponded to a high level of resistance according to Clinical and Laboratory Standards Institute (CLSI) standards. (Clinical and Laboratory Standards Institute, Performance standards for antimicrobial susceptibility testing, 20th Informational Supplement, M100-S20 2010) The compounds had no measurable antibiotic activity when used alone.
(§2) Susceptibility testing was performed and interpreted following the guidelines of CLSI. (Clinical and Laboratory Standards Institute, Performance standards for antimicrobial susceptibility testing, 20th Informational Supplement, M100-S20 2010) The compounds were dissolved in 50% DMSO, and dilutions were performed using Muller-Hinton medium. An adequate final concentration was obtained to determine the minimum inhibitory concentrations (MICs). The concentration of DMSO was maintained below 5%. The inhibitors were tested for synergy with the third-generation β-lactams ceftazidime and cefotaxime against several clinical bacteria. […] Each value reported reflects the average of three independent experiments. […] A Klebsiella pneumoniae isolate produced the inducible plasmid-mediated class C enzyme DHA-1. The Friedman's test and the Wilcoxon signed rank test were used to compare MIC values. Statistical significance was established at p<0.05.

The test system of test [2] is K. pneumoniae and E. cloacae strains in which AmpC expression is inducible. Kind of test: β-lactamase induction experiments (disk potentiation of ceftazidime). Format: cell-based, Klebsiella pneumoniae; Enterobacter cloacae. The settings on record: 64 μg of compounds or 32 μg cefoxitin per disk, ceftazidime disk 30 μg. From the text:
(§3) FIG. 9. Inhibition of bacterial growth and potentiation effect. A) Activity of compounds 4 (CP4) and 9 (CP9) in combination with ceftazidime (CAZ) and alone against a Klebsiella pneumoniae strain producing AmpC β-lactamase. Solvent (SOL):DMSO/Water 1:1. B) Potentiation of β-lactamase inhibition in an E. cloacae strain in which ampC gene expression is inducible by β-lactam antibiotics, such as cefoxitin (FOX). C) Potentiation of β-lactamase inhibition in a Klebsiella pneumoniae isolate producing the inducible class C enzyme DHA-1.
A traditional β-lactam resistance mechanism is the upregulation of β-lactamase-encoding gene transcription caused by β-lactams such as cefoxitin and the β-lactamase inhibitor clavulanate. To test the role of compounds on the induction of AmpC expression, we investigated their ability to potentiate the action of the β-lactam ceftazidime. We compared the potentiation effect of compounds with that of cefoxitin (FIGS. 9B and 9C). Agar plates were inoculated with K. pneumoniae and E. cloacae strains in which AmpC expression is inducible. A ceftazidime-containing disk and a disk containing the inhibitors (cefoxitin or compounds 4 and 9) were placed on each plate. As ceftazidime diffuses from disks into the agar, a clear zone is created around the ceftazidime-containing disk, indicating where bacteria are unable to grow. The shape of this halo in the vicinity of the inhibitor-containing disk indicated the effect of these compounds on the induction of AmpC. The inhibition halos normally surrounding ceftazidime were substantially diminished in the regions nearest to the cefoxitin disk.
For the β-lactamase induction experiments, plates of Mueller Hinton agar were inoculated with two clinical strains (E. cloacae and K. pneumoniae) in which production of AmpC-type enzyme is inducible by β-lactam antibiotics. Inhibitors were added to blank disks, and the final content of inhibitor per disk was 64 μg of compounds and 32 μg cefoxitin. Disks of ceftazidime contained 30 μg of antibiotic.

The subject of test [3] is E. cloacae overproducing chromosomally-mediated class C β-lactamase. Kind of test: MIC of third-generation cephalosporins alone and with compounds 4 or 9 (Table 3). Format: cell-based, Enterobacter cloacae. The settings on record: ratio 1:1.
Excerpt: as §1, §2

The subject of test [4] is C. freundii overproducing chromosomally-mediated class C β-lactamase. The test is described as above. Format: cell-based, Citrobacter freundii. As to conditions: ratio 1:1.
Excerpt: as §1, §2

The next test deals with CTX-M-9 β-lactamase (Escherichia coli, UniProt Q9L5C8). Briefly: biochemical. The test is classed as biochemical.
CTX-M-9 β-lactamase, sequence (Q9L5C8 29-291): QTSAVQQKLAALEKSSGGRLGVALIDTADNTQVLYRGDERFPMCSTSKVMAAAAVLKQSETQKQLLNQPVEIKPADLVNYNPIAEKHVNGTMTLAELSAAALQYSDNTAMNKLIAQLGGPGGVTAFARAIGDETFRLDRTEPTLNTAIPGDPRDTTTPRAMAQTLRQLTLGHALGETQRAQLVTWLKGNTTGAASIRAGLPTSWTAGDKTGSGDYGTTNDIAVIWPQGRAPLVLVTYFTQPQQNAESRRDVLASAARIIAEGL
In test [5] the test system is P. aeruginosa overproducing chromosomally-mediated class C β-lactamase. Briefly: MIC of third-generation cephalosporins alone and with compounds 4 or 9 (Table 3). The test is classed as cell-based, Pseudomonas aeruginosa. The settings on record: ratio 1:1.
Excerpt: as §1, §2

The target of test [6] is T1, α-chymotrypsin (bovine pancreatic) (Bos taurus, UniProt P00766).
T1 construct: purchased Sigma-Aldrich
Kind of test: α-Chymotrypsin inhibition. Format: biochemical.

Test [7] has as its system E. coli overproducing chromosomally-mediated class C β-lactamase. Briefly: MIC of third-generation cephalosporins alone and with compounds 4 or 9 (Table 3). The test is classed as cell-based, Escherichia coli. The settings on record: ratio 1:1.
Excerpt: as §1, §2

Test [8] concerns E. coli producing plasmid-mediated class A β-lactamase CTX-M-14. Described as above. The test is classed as cell-based, Escherichia coli. The settings on record: ratio 1:1.
Excerpt: as §1, §2

Test [9] relates to Klebsiella pneumoniae strain producing AmpC β-lactamase. Kind of test: Disk diffusion plate assay. As to conditions: for inhibition of bacterial growth in combination with ceftazidime: disk with ceftazidime (30 μg) and inhibitor (30 μg); for activity on bacteria growth, compound alone: disk with inhibitor alone (30 μg). The test is classed as cell-based.
Excerpt: as §3
For disk diffusion plate assays, bacterial strains were diluted in sterile water to a turbidity equivalent to 0.5 McFarland turbidity standards. After a subsequent 10-fold dilution, the bacterial suspensions were inoculated on Mueller Hinton agar. The plates were dried for 10 min before applying the disks containing cefotaxime or ceftazidime antibiotics (30 μg) or the inhibitor (30 μg) or both. After overnight incubation at 37° C., the zones of bacterial-growth inhibition were measured.
(In general: In agar diffusion tests the substance spreads into inoculated agar from a disc or well.)

For another test, the target named is cruzain (Trypanosoma cruzi, UniProt P25779). Briefly: Cruzain inhibition, Z-FR-AMC cleavage. Format: biochemical. On the procedure: Cruzain assays were performed in 100 mM sodium acetate pH 5.5 with 0.01% Triton-X and 5 mM dithiothreitol. Cruzain activity was measured in a 96-well format fluorimetric assay, monitoring the cleavage of the substrate Z-Phe-Arg-aminomethylcoumarin (Z-FR-AMC), in a SpectraMax M5, Molecular Devices spectrofluorimeter.
cruzain, sequence (P25779 123-337 limits assumed): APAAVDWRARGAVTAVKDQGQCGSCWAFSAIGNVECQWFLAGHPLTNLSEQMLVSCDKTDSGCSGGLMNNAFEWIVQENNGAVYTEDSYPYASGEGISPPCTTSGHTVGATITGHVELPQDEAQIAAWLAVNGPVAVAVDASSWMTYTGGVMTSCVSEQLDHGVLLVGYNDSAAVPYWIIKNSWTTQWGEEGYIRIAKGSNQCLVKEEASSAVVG

Test [10] concerns the target T2, AmpC β-lactamase (Escherichia coli, UniProt P00811).
T2 construct: made in house
The test is classed as biochemical. As to conditions: enzyme incubation and dilution experiments.

A further test addresses T3, Trypsin (UniProt P00760).
T3 construct: IC50 (Estimated from single concentration measurement); Ki
T3 sequence (P00760 1-246): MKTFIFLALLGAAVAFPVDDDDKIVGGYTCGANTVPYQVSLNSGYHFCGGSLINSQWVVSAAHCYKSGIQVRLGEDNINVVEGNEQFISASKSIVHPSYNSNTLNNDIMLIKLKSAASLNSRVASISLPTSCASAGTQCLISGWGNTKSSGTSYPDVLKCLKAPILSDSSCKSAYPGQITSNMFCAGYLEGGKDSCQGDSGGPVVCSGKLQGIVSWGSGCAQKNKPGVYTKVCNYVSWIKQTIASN
Briefly: Trypsin inhibition. Format: biochemical.

Another test deals with T4, Elastase (Sus scrofa, UniProt P00772).
T4 construct: IC50 (Estimated from single concentration measurement); Ki
T4 sequence (P00772 27-266): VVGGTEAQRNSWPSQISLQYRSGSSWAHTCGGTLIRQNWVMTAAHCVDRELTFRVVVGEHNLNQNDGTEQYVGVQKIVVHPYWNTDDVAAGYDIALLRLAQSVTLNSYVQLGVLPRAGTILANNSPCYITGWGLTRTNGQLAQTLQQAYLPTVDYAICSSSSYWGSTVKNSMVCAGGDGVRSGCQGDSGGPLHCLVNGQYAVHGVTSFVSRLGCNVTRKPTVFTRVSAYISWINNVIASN
Kind of test: Elastase inhibition. Format: biochemical. From the text: To assess the selectivity of the new molecules we determined Ki values against three common serine proteases, Trypsin, Elastase and α-Chymotrypsin, as well as that of a class A β-lactamase, CTX-M-9 (Table 10) (Pouvreau L, et al. (1998), FEBS Lett 423:167-172; Del Mar E G, et al. (1980), Biochemistry 19:468-472; Rodriguez-Martinez J A, et al. (2009), Biotechnol Lett 31:883-887; Chen Y, et al. (2005), J Mol Biol 348:349-362).

In test [11] the target is T2, AmpC β-lactamase. Kind of test: biochemical. The test is classed as biochemical.
Setting [12] is: Table 8, read-out: Ki vs CTX-M-9.
Where [13] appears, read: Table 4e, read-out: IC50 (Estimated from single concentration measurement).
[14] abbreviates: Table 4f, read-out: IC50 (from multi- or single concentration measurements).
Setting [15] is: Table 4g, read-out: Ki (from multi- or single concentration measurements).

T2 sequence (P00811 20-377): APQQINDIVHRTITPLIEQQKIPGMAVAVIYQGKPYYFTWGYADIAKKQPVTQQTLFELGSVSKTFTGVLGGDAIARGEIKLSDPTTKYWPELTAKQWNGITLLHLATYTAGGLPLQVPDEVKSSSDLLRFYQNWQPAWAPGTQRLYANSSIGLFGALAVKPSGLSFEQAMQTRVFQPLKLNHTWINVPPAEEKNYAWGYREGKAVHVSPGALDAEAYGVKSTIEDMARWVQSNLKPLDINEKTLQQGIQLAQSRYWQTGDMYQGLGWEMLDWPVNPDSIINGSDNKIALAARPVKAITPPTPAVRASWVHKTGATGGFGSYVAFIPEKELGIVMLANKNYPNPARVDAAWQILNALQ

Consider `O=S(=O)(Cc1ccccc1)NCB(O)O` [Compound 4, Pinacol(phenylmethanesulfonylamino)methaneboronate], for which the “MIC of cefotaxime with compound” value is 4 µg/mL in test [1]; 4 µg/mL in [3]; 2 µg/mL in test [4]; 16 µg/mL in test [5]; 1 µg/mL in test [7]; 16 µg/mL in [8]. Further, the “MIC of ceftazidime with compound” value in test [1] was 8 µg/mL; in test [3], 4 µg/mL; in test [4], 4 µg/mL; in test [5] it was 4 µg/mL; in [7], 4 µg/mL; in [8] it was 2 µg/mL. The “effect on the ceftazidime inhibition halo (induction of AmpC)” value in test [2] is listed as “synergic picture”. The values for the Ki at CTX-M-9 β-lactamase and on CTX-M-9 β-lactamase (read-out: Ki corresponding to the IC50 values) were 2.5 µM and 2.53 µM, respectively. The IC50 is 6.87 µM at CTX-M-9 β-lactamase (Table 4a, read-out: IC50); more than 500 µM in test [6]; more than 500 µM against cruzain. The “inhibition at 100 µM” value (in [6]; at cruzain) was “no measurable inhibition” each time. Further, the “inhibition of bacterial growth in combination with ceftazidime” value in test [9] was “large inhibition halo”. Also, the “activity on bacteria growth, compound alone” value in [9] is on record as “little or no detectable activity”.
For `O=C(O)c1ccc(CS(=O)(=O)NCB(O)O)cc1` [Compound 9, [(4-carboxyphenyl)methanesulfonylamino]methaneboronic acid], the “MIC of cefotaxime with compound” value turned out to be 2 µg/mL in test [1]; 8 µg/mL in [3]; 4 µg/mL in [4]; 32 µg/mL in test [5]; 2 µg/mL in [7]; 8 µg/mL in test [8]. Also, the “MIC of ceftazidime with compound” value in test [1] was 4 µg/mL; in test [3], 4 µg/mL; in [4], 4 µg/mL; in test [5], 8 µg/mL; in test [7] it was 8 µg/mL; in test [8] it was 1 µg/mL. Besides, the “effect on the ceftazidime inhibition halo (induction of AmpC)” value in test [2] is listed as “synergic picture”. Besides, the “time dependence of inhibition (incubation effect, off-rate)” value at AmpC β-lactamase [10] is reported as “no measurable time dependence”. Further, the IC50 is 1.5 µM on CTX-M-9 β-lactamase (Table 4a, read-out: IC50); more than 500 µM in [6] (read-out: IC50); more than 500 µM at cruzain (read-out: IC50). Moreover, the Ki at CTX-M-9 β-lactamase (setting [12]) is 0.55 µM. Besides, the “inhibition at 100 µM” value (in test [6]; at cruzain) was “no measurable inhibition” each time. For the same molecule, the “inhibition of bacterial growth in combination with ceftazidime” value in test [9] is given as “large inhibition halo”. For the same molecule, the “activity on bacteria growth, compound alone” value in test [9] is reported as “little or no detectable activity”.
In the case of “Pinacol(chloromethanesulfonylamino)methaneboronate [CR70]”, the “Percentage activity with 100 μM inhibitor” value on Trypsin (Table 4b, 100 μM inhibitor) is reported as 97; at Elastase (Table 4b, 100 μM inhibitor) it was 10; in test [6] (Table 4b, 100 μM inhibitor), 90. The “Percentage inhibition with 100 μM inhibitor” value at Trypsin (Table 4c, 100 μM inhibitor) came out at 3; on Elastase, 90; in test [6] (Table 4c, 100 μM inhibitor) it was 10. Moreover, the potency estimated from few doses at Trypsin (setting [13]) was 3230 µM; on Elastase (setting [13]), 11 µM; at CTX-M-9 β-lactamase (setting [13]) it was 16 µM; in test [6] (setting [13]), 900 µM. For the same molecule, the IC50 worked out at 16 µM on CTX-M-9 β-lactamase (setting [14]) and 1.55 µM on AmpC β-lactamase [11] (setting [14]). The Ki worked out at 5.9 µM on CTX-M-9 β-lactamase (setting [15]); 5.9 µM at CTX-M-9 β-lactamase (setting [12]); 0.3 µM on AmpC β-lactamase [11] (setting [15]); 0.31 µM on AmpC β-lactamase [11] (Table 7, read-out: Ki Vs AmpC); 0.31 µM on AmpC β-lactamase [11] (Table 8, read-out: Ki vs AmpC). For the same molecule, the “Percentage inhibition with 16 μM inhibitor” value on CTX-M-9 β-lactamase (Table 4d, 16 μM inhibitor) is 50.
